Three molecules from US4921873A, “Antiviral and antitumor cyclohexadienone compositions” (Harbor Branch Oceanographic Institution, Inc., priority 1985, dated 1990) can be followed below.

In data set [1] the test system is L-1210 murine leukemia cells. Put plainly: L-1210 mouse leukemia cell cytotoxicity assay. Type of data set: cell-based. Particulars: L-1210, at 200 μg/ml, in vitro. As for the experimental part: The following assay method was utilized to illustrate the antitumor effectiveness of the compounds of formulas II, IV, V, VI and VII.
L1210 And P388 MOUSE LEUKEMIA CELL CYTOXICITY ASSAY 24-WELL PLATE SCREENING ASSAY AND TUBE ASSAY PROTOCOL
Media--Dulbeccos with glucose and pyruvate (Biologos, Inc) with 10% horse serum, (Biologos, Inc) and 1.0 μg/ml gentamicin (Gibco). Cells--L1210 and P-388 mouse leukemia cells (American Type Culture Collection) in media at a concentration of 5×10^4 cells/ml. Sterile 24-well culture plates (Nunc) for screening or 12×75 mm glass culture tubes (Becton-Dickinson) for tube assay. Microdispenser with 1 to 5 μl increments (Drummond Scientific Co. Broomall Pa). Finnpipette with […] and Finnpipette with 50 to 200 μl increments.
1. A sample of the composition to be assayed is added to each well or tube in an amount of from 200 μg/ml and 100 μg/ml for screening. For DDC of known active compounds use log concentrations from 100 μg/ml to 0.01 μg/ml for range-finding assay; when range has been determined, use five concentrations between highest and lowest active concentrations.
2. Add 2.0 ml of 5×10^4 cell suspension in media to each well or tube. Tubes are loosely covered with parafilm.
3. Incubate in 5% CO2 incubator 48 hours.
4. Visually read plates with inverted microscope, comparing with solvent control. Assign activity as follows: […]

For data set [2], the system named is cells. Put plainly: Zone of cytotoxicity in antiviral disk assay. The format is cell-based. Particulars: read at Day 5. On the procedure: The following assay method was utilized to illustrate the antiviral effectiveness of the compound of Formula II.
(11) For assay, add 1×10^6 cells to each well (6 wells per culture dish). Bring each well to 2 ml with fresh medium.
(4) Add 2 ml MC-4000 to each well.
(5) Place disks on surface and push through (1 mg/disc, 0.5 mg/disc, 0.25 mg/disc, etc. for crude extracts).
(1) Add 2 ml neutral red medium.

The subject of data set [3] is HSV-I. Put plainly: HSV-I plaque inhibition disk assay (antiviral effectiveness). Type of data set: cell-based, herpes simplex-I. More on the design: key to inhibition of plaque formation: +++: complete inhibition; ++: a few plaques around the outside of well; +: definite inhibition; +/-: questionable inhibition; -: no inhibition. On the procedure:
The following assay method was utilized to illustrate the antiviral effectiveness of the compound of Formula II. (1) Remove 75 cm^2 culture flasks from incubator (these were plated the previous week). (11) For assay, add 1×10^6 cells to each well (6 wells per culture dish). Bring each well to 2 ml with fresh medium. (1) Aspirate medium. (2) Add 0.5 of medium containing 200 pfu HSV-I. (3) Incubate […] with a small amount of shaking. (4) Add 2 ml MC-4000 to each well. (5) Place disks on surface and push through (1 mg/disc, 0.5 mg/disc, 0.25 mg/disc, etc. for crude extracts). (6) Incubate 48 hr. (making sure dishes remain level). Day 4: (1) Add 2 ml neutral red medium. (2) Incubate overnight.

Data set [4] in a line: Stability of isolated alcohol derivative at room temperature. The format is physicochemical.

Take `CC(=O)OCC(Cl)C1=CC(C)(C)C=CC1=O` (stereo not drawn) [Formula II]: the viability at 200 µg/mL in data set [1] (Mus musculus, L1210, 48 h, read-out: survival) was found to be 100%. Besides, the “zone of cytotoxicity (diameter)” value in data set [2] is reported as 16 mm. In data set [3] (200 pfu, read at Day 5), the “inhibition of plaque formation” value is given as “++”. Further, the antiviral activity entry in data set [3] (results at Day 5, in words) was “definite antiviral activity”.

On to `CC1(C)C=CC(=O)C(C(Cl)CO)=C1` (stereo not drawn) [Formula VIII], for which the decomposition time entry in data set [4] is listed as “two”.

In turn, `CC1(C)C=CC(=O)C(C2CO2)=C1` (stereo not drawn) [Formula VII] came in with a survival in data set [1] (48 hours, 2880 min) of 28%.
